Legend:
Type in all cases: cell-based
[1] = test system: Silicibacter sp. strain TM1040; assay: Chemotaxis plate screening assay (change in motile colony morphology); settings: for Change in morphology with carbon source Alanine / Change in morphology with carbon source Glucose / Change in morphology with carbon source Glycerol / Change in morphology with carbon source Succinate: BM motility agar; for Change in morphology with carbon source Alanine: alanine as single carbon source; for Change in morphology with carbon source Glucose: glucose as single carbon source; for Change in morphology with carbon source Glycerol: glycerol as single carbon source; for Change in morphology with carbon source Succinate: succinate as single carbon source; as to Change in morphology with carbon source Alanine: key: −: minus indicates no change compared to distilled water or no attractant controls; +: either one or two pluses indicates moderate to strong alteration in motile colony phenotype (respectively); ++: either one or two pluses indicates moderate to strong alteration in motile colony phenotype (respectively); as to Change in morphology with carbon source Glucose: key: −: minus indicates no change compared to distilled water or no attractant controls; +: either one or two pluses indicates moderate to strong alteration in motile colony phenotype (respectively); ++: either one or two pluses indicates moderate to strong alteration in motile colony phenotype (respectively); as to Change in morphology with carbon source Glycerol: key: −: minus indicates no change compared to distilled water or no attractant controls; +: either one or two pluses indicates moderate to strong alteration in motile colony phenotype (respectively); ++: either one or two pluses indicates moderate to strong alteration in motile colony phenotype (respectively); as to Response: change in motile colony morphology of TM1040 in response to attractants, compared to the control: key: −: minus indicates no change compared to distilled water or no attractant controls; +: either one or two pluses indicates moderate to strong alteration in motile colony phenotype (respectively); ++: either one or two pluses indicates moderate to strong alteration in motile colony phenotype (respectively)
Procedure: Following 36 h of incubation, a putative attractant was placed approximately 5 cm from the site of inoculation (or 2.5 cm in front of the periphery of motile cells). Possible chemoattractant compounds were administered as either a sterile solid or concentrated stock solutions. The cells were further incubated for 16 h to allow for additional outward movement, at which time measurement of diameter, shape, and chemotaxis rings internal to the motile colony were made.
[…] Bacteria inoculated into the center of the agar consume nutrients and create a concentration gradient that increases outward from the point of inoculation. The bacteria sense the increasing gradient and swim outwards, seeking higher concentrations of nutrients, which is manifested as a symmetrical “motile” colony. If an attractant is placed at a short distance in front of the advancing motile colony, it forms a second gradient moving towards the oncoming cells that will affect the symmetry of the colony by reducing the net outward swimming of the bacteria.

[2] = test system: Silicibacter sp. strain TM1040; assay: Quantitative capillary chemotaxis assay; settings: for response factor (mean): pure compounds, FIG. 12, capillaries filled with 2 μM or 200 μM attractant; for mean concentration of bacteria in methionine-filled capillaries: starved cells
From the text: The cells were pelleted by centrifugation at 4,000×g in a tabletop centrifuge (Centra-CL2; International Equipment Company), the supernatant was discarded, and the pellet was resuspended in chemotaxis buffer (CB) (15 g of ASW, 6 g of Tris-HCl per liter [pH 7.6]) to the same OD. Five hundred microliters of washed cells was placed in one of the wells of the Palleroni chamber, followed by a 1-μl capillary (Microcaps; Drummond) filled with a putative attractant diluted in CB. This process was repeated for each of the four wells in the chamber. A capillary filled with CB only was included in each experiment as a negative control. Depending on the experiment, capillaries remained in the chambers for 0.5 to 2 h, after which time they were removed, and the contents of each capillary were serially diluted in CB. Final dilutions were then spread on HIASW agar plates and incubated for 16 h at 30° C. The concentration of TM1040 in each capillary was derived by counting the CFU on each plate and multiplying by the appropriate dilution factor. […]

[3] = test system: Silicibacter sp. strain TM1040; assay: Capillary assay: reduction in chemotaxis toward P. piscicida homogenates by externally supplied attractant; settings: for % Reduction in CFU per capillary compared to the control / No. of bacteria per capillary (CFU · 10^4), attractant added to external buffer: 200 μM attractant in external buffer; for No. of bacteria per capillary (CFU · 10^4), attractant added to external buffer: SD in parentheses
Procedure: The capillary assay was also used to measure the reduction in chemotaxis through competition when a known attractant was supplied exogenously (i.e., outside the capillary). In this variation, the quantitative capillary method was used, but a known attractant was included in the CB used to suspend the washed cells. A capillary containing a mixture of potential chemoattractant molecules was then placed in the chamber and incubated as described earlier. At the completion of the assay, the percent reduction in chemotaxis was calculated using the following formula: % reduction=[1−(CFU ml^−1exogenous/CFU ml^−1control)]×(100).
Dinoflagellates and Rhodomonas sp. were grown to late exponential phase (ca. 10^5 to 10^6 cells per ml), and the cell density was measured using a Coulter Counter (model M/SZRII; Beckman Coulter). Dinoflagellates were harvested after starvation of the culture to remove Rhodomonas prey algae, which was confirmed by microscopy. The cell densities in P. piscicida and Rhodomonas cultures were normalized to 10^5 cells per ml, and each culture was then pelleted by centrifugation at 4,000×g and 4° C. for 10 min. The supernatant was removed, and the pellets were separately resuspended with either 1 ml of ice-cold distilled water or CB. The cells were homogenized by sonication (Sonic Dismembrator; Fisher), and cell disruption was assessed by microscopy. To examine the heat sensitivity of chemotaxis elicitors, an aliquot of each homogenate was heated to 80° C. for 15 min prior to the assay. All homogenates were then stored at −20° C. When required, the homogenates were thawed, held on ice, and used in the capillary assay as described.

[4] = heated (80° C. for 15 min) P. piscicida homogenate
[5] = untreated P. piscicida homogenate

SMILES	Response: change in motile colony morphology of TM1040 in response to attractants, compared to the control ([1]; BM glycerol motility agar)	chemotactic response of TM1040 in plate assay ([1]; BM glycerol motility agar)	response factor (mean) [2]	Change in morphology with carbon source Alanine [1]	Change in morphology with carbon source Glucose [1]	Change in morphology with carbon source Glycerol [1]	Change in morphology with carbon source Succinate [1]	also measured
CSCC[C@H](N)C(=O)O [methionine]	++	significant effects on the periphery of the motile colony	9.8					mean concentration of bacteria in methionine-filled capillaries ([2]; 0.5 h, 200 μM): 5.3×10^7 CFU per ml; mean concentration of bacteria in methionine-filled capillaries ([2]; 1 h, 200 μM): 1.8×10^8 CFU per ml; mean concentration of bacteria in methionine-filled capillaries ([2]; 1.5 h, 200 μM): 2.4×10^8 CFU per ml; mean concentration of bacteria in methionine-filled capillaries ([2]; 2 h, 200 μM): 2.4×10^8 CFU per ml; maximum mean concentration of bacteria in methionine-filled capillaries ([2]; without starvation, peak at 1.5 h, 200 μM): 2.1×10^8 CFU per ml; % Reduction in CFU per capillary compared to the control [3, 4]: 48%; No. of bacteria per capillary (CFU · 10^4), attractant added to external buffer [3, 4]: 1.80 (±0.11) CFU · 10^4; % Reduction in CFU per capillary compared to the control ([3]; heated (80° C. for 15 min) P. piscicida homogenate, listed as Methionine): 48.72%; % Reduction in CFU per capillary compared to the control [3, 5]: 58%; No. of bacteria per capillary (CFU · 10^4), attractant added to external buffer [3, 5]: 3.03 (±0.32) CFU · 10^4; % Reduction in CFU per capillary compared to the control ([3]; untreated P. piscicida homogenate, listed as Methionine): 58.15%; mean number of bacteria in the untreated capillaries ([3]; untreated homogenate, attractant supplied externally in the buffer): 3.03×10^4 CFU per ml
O=C(O)CCC(=O)C(=O)O [Alpha-ketoglutarate]	−	no response	none were found to be significant chemoattractants	−	−	−	+	
O=C(O)CC(O)(CC(=O)O)C(=O)O [Citrate]	++	strong positive response	none were found to be significant chemoattractants					
O=C(O)CCC(=O)O [Succinate]	+	mild response	none were found to be significant chemoattractants	++	+	+	−	chemotactic response of TM1040 in plate assay ([1]; glucose background (BM glucose)): moderate response
NCCCC[C@H](N)C(=O)O [lysine]	+		ca. 3.5	−	−	+	−	
OC[C@H]1O[C@@](CO)(O[C@H]2O[C@H](CO)[C@@H](O)[C@H](O)[C@H]2O)[C@@H](O)[C@@H]1O [sucrose]	++	responded positively						
N[C@@H](CS)C(=O)O [cysteine]	+							
NC(=O)C[C@H](N)C(=O)O [asparagine]	++							
C[C@@H](O)[C@H](N)C(=O)O [threonine]	++							
N[C@@H](Cc1c[nH]cn1)C(=O)O [histidine]	+							
